From patent publication US20140275094A1, “METHOD FOR TREATING PULMONARY ARTERIAL HYPERTENSION IN A PATIENT NOT HAVING IDIOPATHIC PULMONARY FIBROSIS” (GILEAD SCIENCES, INC., priority 2012, published 2014)
pIC50: −log10 of the molar value. Values belong to the molecule of their own block, whether it stands above or below them.

Tests used:
[1] = molecular target: T1, human bile salt export pump (BSEP) (Homo sapiens, UniProt O95342); assay: Inhibition of hepatic transporter BSEP, Sf9 cell membrane vesicles; format: biochemical
T1 construct: expressed in transfected cells; host or cells: Sf9 cell membrane vesicles
Method: Inhibition constants (IC50) were measured for human bile salt export pump (BSEP), sodium taurocholate cotransporting polypeptide (NTCP), multidrug resistance protein 2 (MRP2), P-glycoprotein (Pgp), breast cancer resistance protein (BCRP), organic anion-transporting polypeptide 1B1 (OATP1B1), and OATP1B3 in transfected cell-lines. Known inhibitors were used as positive controls.

[2] = MGPS disproportionality analysis of FDA AERS spontaneous reports of hepatic events; set-up: species or system human; key to EBGM: ratio of observed to expected reports (independence assumption); settings: for Count / EBGM: FDA AERS, 18 months post approval; for EB05: lower bound of 90% confidence interval of EBGM
Method: A disproportionality analysis was performed for ambrisentan and bosentan using information from the FDA Adverse Events Reporting System (AERS) spontaneous reporting database. […] The value of the EBGM reflects the ratio of the number of observed reports of a drug-adverse event combination with the number expected under an assumption of independence between the drugs and events in the database. […] In order to reduce the occurrence of false positives due to age group or gender influence, the safety reports were stratified by subject age group and gender. For each drug, the AERS data were analyzed for the 18-month period following the respective approval dates for ambrisentan and bosentan: 15 Jun. 2007 to 14 Dec. 2008 for ambrisentan and 21 Nov. 2001 to 20 May 2003 for bosentan. […] This threshold is generally accepted as a signal of disproportional reporting (Szarfman, et al., “Use of screening algorithms and computer systems to efficiently signal higher-than-expected combinations of drugs and events in the US FDA's spontaneous reports database.” Drug Safety 25, 381-392 (2002)). The comparator dataset in the calculations for ambrisentan and bosentan included data for all other drugs in the AERS database.

[3] = Ambrisentan in subjects who discontinued bosentan/sitaxsentan due to aminotransferase elevations (AMB-222, AMB-323); format: in vivo, human; settings: prior ERA discontinued for aminotransferase >3×ULN
Description: They were enrolled in studies AMB-222 (n=36) and AMB-323 (n=27). […] The remaining subjects in these studies (a total of 4 subjects) did have an aminotransferase level>3×ULN and are included in Table 1.

patients with PAH = assay: Long-term follow-up of the two pivotal studies and open-label extension; format: in vivo, human; settings: 2.5, 5 or 10 mg once daily, N=383
Method: Long-term Treatment of PAH: In long-term follow-up of patients who were treated with ambrisentan (2.5 mg, 5 mg, or 10 mg once daily) in the two pivotal studies and their open-label extension (N=383), Kaplan-Meier estimates of survival at 1, 2, and 3 years were 93%, 85%, and 79%, respectively. Of the patients who remained on ambrisentan for up to 3 years, the majority received no other treatment for PAH.

[4] = Blood alkaline phosphate increased
[5] = Blood bilirubin unconjugated increased

T1 sequence (O95342 whole entry): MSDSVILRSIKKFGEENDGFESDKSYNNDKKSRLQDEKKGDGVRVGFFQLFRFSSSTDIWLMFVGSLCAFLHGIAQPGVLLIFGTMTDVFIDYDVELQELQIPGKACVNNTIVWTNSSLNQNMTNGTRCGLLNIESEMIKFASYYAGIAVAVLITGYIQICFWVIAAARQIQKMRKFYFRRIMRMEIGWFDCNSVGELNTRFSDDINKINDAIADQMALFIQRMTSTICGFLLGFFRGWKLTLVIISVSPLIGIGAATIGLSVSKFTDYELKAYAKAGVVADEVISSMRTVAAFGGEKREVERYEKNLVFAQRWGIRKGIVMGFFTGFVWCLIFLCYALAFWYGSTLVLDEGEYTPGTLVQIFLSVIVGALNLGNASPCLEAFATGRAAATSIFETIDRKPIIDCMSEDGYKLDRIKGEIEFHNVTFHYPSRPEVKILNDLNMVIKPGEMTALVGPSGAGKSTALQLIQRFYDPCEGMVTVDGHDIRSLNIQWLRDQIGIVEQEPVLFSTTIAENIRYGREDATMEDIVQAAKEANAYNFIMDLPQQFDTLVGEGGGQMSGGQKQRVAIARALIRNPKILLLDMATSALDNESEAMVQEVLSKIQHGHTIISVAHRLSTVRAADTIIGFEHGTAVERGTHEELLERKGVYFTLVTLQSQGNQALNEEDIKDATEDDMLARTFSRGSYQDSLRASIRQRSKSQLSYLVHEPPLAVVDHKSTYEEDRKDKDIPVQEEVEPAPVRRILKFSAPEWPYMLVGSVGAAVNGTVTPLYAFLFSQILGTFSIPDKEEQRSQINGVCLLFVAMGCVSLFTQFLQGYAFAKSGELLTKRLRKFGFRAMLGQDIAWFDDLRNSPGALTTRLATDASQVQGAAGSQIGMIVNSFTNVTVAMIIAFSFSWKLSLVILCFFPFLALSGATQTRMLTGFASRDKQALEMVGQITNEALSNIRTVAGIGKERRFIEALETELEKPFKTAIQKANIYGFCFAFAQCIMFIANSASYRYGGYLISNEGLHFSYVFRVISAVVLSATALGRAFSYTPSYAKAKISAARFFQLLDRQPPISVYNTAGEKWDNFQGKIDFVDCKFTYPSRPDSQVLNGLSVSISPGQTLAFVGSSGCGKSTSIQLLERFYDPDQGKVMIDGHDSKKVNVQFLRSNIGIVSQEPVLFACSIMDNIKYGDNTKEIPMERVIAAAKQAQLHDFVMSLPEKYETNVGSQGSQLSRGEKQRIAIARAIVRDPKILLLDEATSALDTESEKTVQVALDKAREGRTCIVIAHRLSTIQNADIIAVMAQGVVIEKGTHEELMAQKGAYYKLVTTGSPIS

SMILES: COC(c1ccccc1)(c1ccccc1)[C@H](Oc1nc(C)cc(C)n1)C(=O)O [Ambrisentan, (25)-2-[(4,6-dimethylpyrimidin-2-yl)oxy]-3-methoxy-3,3-diphenylpropanoic acid]
effect on BSEP [1]: no measurable effect | Count ([2]; ALT increased): 3 | EBGM ([2]; ALT increased): 1.55 | Count ([2]; AST increased): 3 | EBGM ([2]; AST increased): 1.63 | Count ([2]; Ascites): 2 | EBGM ([2]; Ascites): 1.80 | Count ([2]; Bilirubin conjugated increased): 0 | Count [2, 4]: 1 | EBGM [2, 4]: 0.86 | Count ([2]; Blood bilirubin increased): 0 | Count [2, 5]: 0 | Count ([2]; Hepatic congestion): 0 | Count ([2]; Hepatic encephalopathy): 0 | Count ([2]; Hepatic enzyme increased): 3 | EBGM ([2]; Hepatic enzyme increased): 1.67 | Count ([2]; Hepatic failure): 0 | Count ([2]; Hepatic function abnormal): 0 | Count ([2]; Hepatic infarction): 0 | Count ([2]; Hepatic necrosis): 0 | Count ([2]; Hepatic steatosis): 1 | EBGM ([2]; Hepatic steatosis): 1.06 | Count ([2]; Hepatitis acute): 0 | Count ([2]; Hepatitis): 1 | EBGM ([2]; Hepatitis): 0.89 | Count ([2]; Hepatomegaly): 0 | Count ([2]; Hepatosplenomegaly): 0 | Count ([2]; INR increased): 1 | EBGM ([2]; INR increased): 0.78 | Count ([2]; Liver disorder): 2 | EBGM ([2]; Liver disorder): 1.43 | Count ([2]; Liver function test abnormal): 10 | EBGM ([2]; Liver function test abnormal): 6.11 | Count ([2]; Prothrombin time prolonged): 1 | EBGM ([2]; Prothrombin time prolonged): 1.29 | Count ([2]; Spider naevus): 0 | Count ([2]; Transaminases increased): 2 | EBGM ([2]; Transaminases increased): 1.96 | EB05 ([2]; liver function test abnormal): 3.5 | subjects who did not experience aminotransferase elevations while receiving ambrisentan ([3]; AMB-222 (n=36)): 97% | subjects who did not experience aminotransferase elevations while receiving ambrisentan ([3]; AMB-323 (n=27)): 89% | Kaplan-Meier estimate of survival (patients with PAH; at 1 year): 93% | Kaplan-Meier estimate of survival (patients with PAH; at 2 years): 85% | Kaplan-Meier estimate of survival (patients with PAH; at 3 years): 79%

Count ([2]; Ascites): 8 | EBGM ([2]; Ascites): 3.60 | Count ([2]; Bilirubin conjugated increased): 5 | EBGM ([2]; Bilirubin conjugated increased): 13.91 | Count [2, 4]: 46 | EBGM [2, 4]: 18.79 | Count ([2]; Blood bilirubin increased): 37 | EBGM ([2]; Blood bilirubin increased): 18.75 | Count [2, 5]: 2 | EBGM [2, 5]: 3.28 | Count ([2]; Hepatic congestion): 5 | EBGM ([2]; Hepatic congestion): 13.18 | Count ([2]; Hepatic encephalopathy): 1 | EBGM ([2]; Hepatic encephalopathy): 1.00 | Count ([2]; Hepatic enzyme increased): 0 | Count ([2]; Hepatic failure): 3 | EBGM ([2]; Hepatic failure): 1.07 | Count ([2]; Hepatic function abnormal): 2 | EBGM ([2]; Hepatic function abnormal): 0.91 | Count ([2]; Hepatic infarction): 1 | EBGM ([2]; Hepatic infarction): 1.44 | Count ([2]; Hepatic steatosis): 0 | Count ([2]; Hepatitis acute): 1 | EBGM ([2]; Hepatitis acute): 1.04 | Count ([2]; Hepatitis): 5 | EBGM ([2]; Hepatitis): 1.63 | Count ([2]; Hepatomegaly): 1 | EBGM ([2]; Hepatomegaly): 0.79 | Count ([2]; Hepatosplenomegaly): 2 | EBGM ([2]; Hepatosplenomegaly): 2.09 | Count ([2]; INR increased): 9 | EBGM ([2]; INR increased): 3.08 | Count ([2]; Liver disorder): 1 | EBGM ([2]; Liver disorder): 0.56 | Count ([2]; Liver function test abnormal): 38 | EBGM ([2]; Liver function test abnormal): 9.59 | Count ([2]; Prothrombin time prolonged): 2 | EBGM ([2]; Prothrombin time prolonged): 1.22 | Count ([2]; Spider naevus): 1 | EBGM ([2]; Spider naevus): 1.46 | Count ([2]; Transaminases increased): 5 | EBGM ([2]; Transaminases increased): 3.58 | EB05 ([2]; blood alkaline phosphate increased): 14.6 | EB05 ([2]; liver function test abnormal): 6.9
SMILES: COc1ccccc1Oc1c(NS(=O)(=O)c2ccc(C(C)(C)C)cc2)nc(-c2ncccn2)nc1OCCO [Bosentan]
effect on BSEP [1]: inhibition was observed | pIC50 ([1]; BSEP): 4.26 | Count ([2]; ALT increased): 57 | EBGM ([2]; ALT increased): 11.57 | Count ([2]; AST increased): 60 | EBGM ([2]; AST increased): 12.52 | Count ([2]; Hepatic necrosis): 1 | EBGM ([2]; Hepatic necrosis): 0.94
